The nature of one series: acid dissociation constant (Ka) of the added compound, measured at a normal temperature.
Settings: not given
The format is physicochemical. On the procedure: The acid dissociation constant value is what was measured at a normal temperature, and is described in, e.g., the annex vol. 2 to the "Dai Yuki-Kagaku (Complete Organic Chemistry)" (published by Asakura Publishing Co., Ltd.), "The Theory of Photographic Process" written by T. H. James, 4th ed. (Published by McMillan), and the like. For the measurement of the acid dissociation constant there are several methods, and reference may be made to, e.g., the "Jikken Kagaku Koza (Course of Experimental Chemistry)" vol. 11, second series, (published by Maruzen Co., Ltd.) pp. 524 to 552, and the like.
To the above-prepared developer was added each of the compounds as given in Table 1 to thereby prepare color developers [A] to [M].
The molecule `Nc1ncnc2nc[nH]c12` [Exemplified compound S-11] showed a pKa of 9.8.

The series is the same for the next values; noted with them: normal temperature; read-out: acid dissociation constant (Ka) (converted).
As to `c1c[nH]cn1` [Comparative compound (1), Imidazole], the pKa is 7.2.
`Cc1cc(O)n2ncnc2n1` [Comparative compound (2), 4-hydroxy-6-methyl-1,3,3a,7-tetrazaindene]: the pKa is 6.49.
Still for that read-out and setting: the figure for `Sc1nnnn1-c1ccccc1` [Comparative compound (3), 1-phenyl-5-mercaptotetrazole] is 3.34.
On to `c1ccc2[nH]cnc2c1` [Exemplified compound S-1], for which the pKa was 11.7.
For the molecule `CCCc1ccc2nc[nH]c2c1` [Exemplified compound S-5], the pKa was 10.3.

The record behind these values is patent US4565774A, “Method for the formation of dye image” (priority 1981, dated 1986).
